Source: patent US4891369A, “2β-Substituted-methylpenicillanic acid derivatives, and salts and esters thereof” (Taiho Pharmaceutical Company, Limited, priority 1986, dated 1990)
In brackets after ≈: the same amount, converted by molar mass.

Legend:
Experiment in all cases: MIC assay (Japan Society of Chemotherapy), antibacterial activity
Type in all cases: cell-based
Serratia 200L = conditions: piperacillin used singly, 10^6 CFU/ml, 37° C., 20 hours, read-out: MIC piperacillin alone
Method: (§1) The minimal inhibitory concentration (MIC) of piperacillin in the presence of 5 μg/ml of the compounds of the present invention against various bacteria were determined by the MIC assay method of Japan Society of Chemotherapy (Chemotherapy 29(1), pp. 76-79, 1981).
(§2) The MIC value of the various compounds according to the invention and piperacillin, as used singly, were also determined. Each test strain was grown on Mueller Hinton Medium (Difco) and used for inoculation after dilution to concentration of 10^6 CFU/ml. The assay media (Mueller Hintoon Medium) containing piperacillin and the compound of the invention in a series of concentrations were inoculated with the test strain and incubated at 37° C. for 20 hours.
(§3) The minimum concentration at which no more than 5 colonies were observed was determined. […] All the test strains used in the above assay were β-lactamase producers.

P. aeruginosa PSE3 = conditions: Pseudomonas aeruginosa, piperacillin used singly, 10^6 CFU/ml, 37° C., 20 hours, read-out: MIC piperacillin alone
Method: as §1, §2, §3

P. mirabillis 60 = conditions: piperacillin used singly; 10^6 CFU/ml; 37° C., 20 hours; read-out: MIC piperacillin alone
Method: as §1, §2, §3

E. coli SHV1 = conditions: Escherichia coli, SHV1, 20 h, read-out: MIC piperacillin alone
Method: as §1, §2, §3

E. coli 1573E = conditions: Escherichia coli, piperacillin used singly, 10^6 CFU/ml, 37° C., 20 hours, read-out: MIC piperacillin alone
Method: as §1, §2, §3

E. coli TEM1 = conditions: Escherichia coli, TEM1, 20 h, read-out: MIC piperacillin alone
Method: as §1, §2, §3

K. pneumoniae 101L = conditions: Klebsiella pneumoniae, piperacillin used singly, 10^6 CFU/ml, 37° C., 20 hours, read-out: MIC piperacillin alone
Method: as §1, §2, §3

P. aeruginosa PSE4 = conditions: Pseudomonas aeruginosa, piperacillin used singly, 10^6 CFU/ml, 37° C., 20 hours, read-out: MIC piperacillin alone
Method: as §1, §2, §3

S. aureus 54K = conditions: Staphylococcus aureus, 20 h, read-out: MIC piperacillin alone
Method: as §1, §2, §3

E. coli OXA3 = conditions: Escherichia coli, OXA3, 20 h, read-out: MIC piperacillin alone
Method: as §1, §2, §3

Citrobacter 962L = conditions: piperacillin used singly, 10^6 CFU/ml, 37° C., 20 hours, read-out: MIC piperacillin alone
Method: as §1, §2, §3

Citrobacter 2046E = conditions: piperacillin used singly, 10^6 CFU/ml, 37° C., 20 hours, read-out: MIC piperacillin alone
Method: as §1, §2, §3

In the case of `CCN1CCN(C(=O)N[C@@H](C(=O)N[C@@H]2C(=O)N3[C@@H]2SC(C)(C)[C@@H]3C(=O)O)c2ccccc2)C(=O)C1=O` [piperacillin], the MIC (Serratia 200L) is reported as 25 µg/mL (≈ 48.3 µM), the MIC (P. aeruginosa PSE3) is reported as 50 µg/mL (≈ 96.6 µM) and the MIC (P. mirabillis 60) is reported as 1.56 µg/mL (≈ 3.01 µM). It also gave an MIC (E. coli SHV1) of 25 µg/mL (≈ 48.3 µM), an MIC (E. coli 1573E) of 6.25 µg/mL (≈ 12.1 µM) and an MIC (E. coli TEM1) of 100 µg/mL (≈ 193 µM). The MIC (K. pneumoniae 101L) was 100 µg/mL (≈ 193 µM), the MIC (P. aeruginosa PSE4) was 200 µg/mL (≈ 386 µM) and the MIC (S. aureus 54K) was 3.13 µg/mL (≈ 6.05 µM). It also gave an MIC (E. coli OXA3) of 3.13 µg/mL (≈ 6.05 µM), an MIC (Citrobacter 962L) of 100 µg/mL (≈ 193 µM) and an MIC (Citrobacter 2046E) of 25 µg/mL (≈ 48.3 µM).
